According to patent EP1021444B1, “3-CARBOXAMIDE DERIVATIVES OF 5H-PYRROLO[2,1-c][1,4]-BENZODIAZEPINES” (Wyeth, priority 1996, dated 1998):
Structures can show the parent of a compound that is named as a salt. Where two headings read alike, the source gives them in different places.

Tests used:
[1] = tested on: Endogenous Arginine Vasopressin Antidiuretic (V2) Response; experiment: Antagonism of endogenous arginine vasopressin antidiuretic (V2) response in conscious rats (urine volume); type: in vivo, Sprague-Dawley rats; conditions: 10 mg/kg rat p.o.; urine collected for four hours after dosing; no water or food during test
Source text: Effects on the Antagonism of Endogenous Arginine Vasopressin Antidiuretic (V2) Response in Conscious Rats with Free Access to Water Drinking Before but not During the Experiment:
Male or female normotensive Sprague-Dawley rats (Charles River Laboratories, Inc., Kingston, NY) of 400-450 g body weight were supplied with Laboratory Rodent Feed #5001 (PMI Feeds, Inc., Richmond, IN) and water ad libitum. On the day of test, rats were placed individually into metabolic cages equipped with stainless steel screens (to separate the feces from the urine) and funnels for collection of urine. Vehicle or reference agent was given at various oral doses. During the test, rats were not provided with water or food. Urine was collected for four hours after dosing of the test compound. At the end of four hours, urine volume was measured. Urinary osmolality was determined using a Fiske One-Ten Osmometer (Fiske Associates, Norwood, MA, 02062). or an Advanced CRYOMATIC Osmometer, Model 3C2 (Advanced Instruments, Norwood, MA). Determinations of Na^+, K^+ and Cl^- ion were carried out using ion specific electrodes in a Beckman SYNCHRON EL-ISE Electrolyte System analyzer. In the following results, increased urine volume and decreased osmolality relative to AVP-control indicates activity.

[2] = target: T1, Human V2 Vasopressin Receptor (Homo sapiens, UniProt P30518); experiment: Binding to membranes of mouse fibroblast cell line (LV-2) transfected with the cDNA expressing the human V2 vasopressin receptor
T1 construct: expressed in transfected cells; host or cells: mouse fibroblast cell line LV-2 (membrane preparation)
Description: Binding to Membranes of Mouse Fibroblast Cell Line (LV-2) Transfected with the cDNA Expressing the Human V2 Vasopressin Receptor
Flasks of 175 ml capacity, containing attached cells grown to confluence, are cleared of culture medium by aspiration. The flasks containing the attached cells are rinsed with 2x5 ml of phosphate buffered saline (PBS) and the liquid aspirated off each time. Finally, 5 ml of an enzyme free dissociation Hank's based solution (Specialty Media, Inc., Lafayette, NJ) is added and the flasks are left undisturbed for 2 min. The content of all flasks is poured into a centrifuge tube and the cells pelleted at 300 x g for 15 min. […] The homogenate is centrifuged at 1500 x g for 10 min to remove ghost membranes. The supernatant fluid is centrifuged at 100,000 x g for 60 min to pellet the receptor protein. Upon completion, the pellet is resuspended in a small volume of 50.0 mM Tris.HCl buffer, pH 7.4. The protein content is determined by the Lowry method and the receptor membranes are suspended in 50.0 mM Tris.HCl buffer containing 0.1 mM phenylmethylsulfonylfluoride (PMSF) and 0.2% bovine serum albumin (BSA) to give 2.5 mg receptor protein per ml of suspension.
For binding experiments, the following is added in ml volume to wells of a 96 well format of a microtiter plate: 100.0 ml of 100.0 mM Tris.HCl buffer containing 0.2% heat inactivated BSA, 10.0 mM MgCl2 and a mixture of protease inhibitors: leupeptin, 1.0 mg %; aprotinin, 1.0 mg %; 1,10-phenanthroline, 2.0 mg %; trypsin inhibitor, 10.0 mg % and 0.1 mM PMSF, 20.0 ml of [^3H] Arginine^8, vasopressin (S.A. 75.0 Ci/mmole) at 0.8 nM and the reaction initiated by the addition of 80.0 ml of tissue membranes (200.0 mg tissue protein). The plates are left undisturbed on the bench top for 120 min to reach equilibrium. Non specific binding is assessed in the presence of 1.0 mM of unlabeled ligand, added in 20 ml volume. For test compounds, these are solubilized in 50% dimethylsulfoxide (DMSO) and added in 20.0 ml volume to a final incubation volume of […]. Upon completion of binding, the content of each well is filtered off, using a Brandel® cell Harvester (Gaithersburg, MD). The radioactivity trapped on the filter disk by the ligand-receptor complex is assessed by liquid scintillation counting in a Packard LS Counter, with an efficiency of 65% for tritium. The data are analyzed for IC50 values by the LUNDON-2 program for competition (LUNDON SOFTWARE, OH).

[3] = read-out: Vasopressin Human V2 Receptor Binding

T1 sequence (P30518 whole entry): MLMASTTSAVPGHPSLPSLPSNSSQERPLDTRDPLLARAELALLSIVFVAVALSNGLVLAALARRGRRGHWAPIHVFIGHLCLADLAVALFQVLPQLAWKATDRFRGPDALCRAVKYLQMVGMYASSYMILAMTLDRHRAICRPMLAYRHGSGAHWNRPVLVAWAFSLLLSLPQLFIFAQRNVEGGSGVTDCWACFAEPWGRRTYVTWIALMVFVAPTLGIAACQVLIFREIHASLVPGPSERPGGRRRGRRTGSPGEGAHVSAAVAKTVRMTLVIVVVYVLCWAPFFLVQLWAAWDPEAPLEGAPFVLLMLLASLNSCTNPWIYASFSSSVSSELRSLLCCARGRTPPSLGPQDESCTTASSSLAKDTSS

| IC50 [2, 3] [nM] | SMILES | Urine Volume (ml/4 hrs) [1] [ml/4 hrs] | IC50 [2] [nM] |
| --- | --- | --- | --- |
| – | Cc1ccc(F)cc1C(=O)Nc1ccc(C(=O)N2Cc3ccc(C(=O)[O-])n3Cc3ccccc32)c(Cl)c1.[K+] [Example 2, 10-[2-Chloro-4-(5-fluoro-2-methyl-benzoylamino)-benzoyl]-10,11-dihydro-5H-pyrrolo[2,1-c][1,4]benzodiazepine-3-carboxylic acid, potassium salt (1:1)] | 11.5 | – |
| 15 | Cc1ccc(F)cc1C(=O)Nc1ccc(C(=O)N2Cc3ccc(C(=O)NN(C)C)n3Cc3ccccc32)c(Cl)c1 [Example 3, N-{3-Chloro-4-[3-(N', N'-dimethyl-hydrazinocarbonyl)-5H,11H-pyrrolo[2,1-c][1,4]benzodiazepine-10-carbonyl]-phenyl}-5-fluoro-2-methyl-benzamide] | 22 | – |
| – | Cc1ccc(F)cc1C(=O)Nc1ccc(C(=O)N2Cc3ccc(C(=O)N[N+](C)(C)C)n3Cc3ccccc32)c(Cl)c1 [Example 4, 2-[[10-[2-Chloro-4-[(5-fluoro-2-methylbenzoyl)amino]benzoyl]-10,11-dihdro-5H-pyrrolo{2,1-c][1,4]benzodiazepin-3-yl]carbonyl]-1,1,1-trimethylhydrazinium iodide] | 9.2 | 60 |
| – | Cc1ccc(F)cc1C(=O)Nc1ccc(C(=O)N2Cc3ccc(C(=O)[N-][N+](C)(C)C)n3Cc3ccccc32)c(Cl)c1 [Example 5, 2-[[10-[2-Chloro-4-[(5-fluoro-2-methylbenzoyl)amino]benzoyl]-10,11-dihydro-5H-pyrrolo[2,1-c][1,4]benzodiazepin-3-yl]hydroxymethylene]-1,1,1-trimethylhydrazinium inner salt] | 9.1 | 60 |
| – | O=C(Nc1ccc(C(=O)N2Cc3ccc(C(=O)C(Cl)(Cl)Cl)n3Cc3ccccc32)c(Cl)c1)c1ccccc1-c1ccccc1 [Example 6] | – | 5.6 |
| – | O=C(Nc1ccc(C(=O)N2Cc3ccc(C(=O)O)n3Cc3ccccc32)c(Cl)c1)c1ccccc1-c1ccccc1 [Example 7, 10-{4-[(Bipheny-2-carbonyl)-amino]-2-chloro-benzoyl)-10,11-dihydro-5H-benzo[e]pyrrolo[1,2-a][1,4] diazepine-3-carboxylic acid] | 19.2 | – |
| – | CN(C)NC(=O)c1ccc2n1Cc1ccccc1N(C(=O)c1ccc(NC(=O)c3ccccc3-c3ccccc3)cc1Cl)C2 [Example 8] | 40.9 | 8.6 |
| 5.5 | CN(C)CCN(C)C(=O)c1ccc2n1Cc1ccccc1N(C(=O)c1ccc(NC(=O)c3ccccc3-c3ccccc3)cc1Cl)C2 [Example 10, 10-{4-[(Biphenyl-2-carbonyl)-amino]-2-chloro-benzoyl}-10,11-dihydro-5H-pyrrolo[2,1-c][1,4]benzodiazepine-3-carboxylic acid (2-dimethylamino-ethyl)-methyl-amide] | 22.2 | – |
| – | O=C(Nc1ccc(C(=O)N2Cc3ccc(C(=O)N4CCC(N5CCCCC5)CC4)n3Cc3ccccc32)c(Cl)c1)c1ccccc1-c1ccccc1 [Example 11, Biphenyl-2-carboxylic acid{3-chloro-4-[3-(4-piperidinyl-piperidine-1-carbonyl)-5H,11H-pyrrolo[2,1-c][1,4]benzodiazepine-10-carbonyl]-phenyl}-amide.] | – | 9.3 |
| – | CN(C)C1CCN(C(=O)c2ccc3n2Cc2ccccc2N(C(=O)c2ccc(NC(=O)c4ccccc4-c4ccccc4)cc2Cl)C3)CC1 [Example 12, Biphenyl-2-carboxylic acid{3-chloro-4-[3-(4-dimethylamino-piperidine-1-carbonyl)-5H,11H-pyrrolo[2,1-c][1,4]benzodiazepine-10-carbonyl]-phenyl}-amide.] | 21.4 | – |
| – | CN1CCN(NC(=O)c2ccc3n2Cc2ccccc2N(C(=O)c2ccc(NC(=O)c4ccccc4-c4ccccc4)cc2Cl)C3)CC1 [Example 13, Biphenyl-2-carboxylic acid{3-chloro-4-[3-(4-methyl-piperazine-1 aminocarbonyl)-5H,11H-pyrrolo[2,1-c][1,4]benzodiazepine-10-carbonyl]-phenyl}-amide.] | 16.8 | – |
| – | CN(C)CCNC(=O)c1ccc2n1Cc1ccccc1N(C(=O)c1ccc(NC(=O)c3ccccc3-c3ccccc3)cc1Cl)C2 [Example 14, 10-{4-[(Biphenyl-2-carbonyl)-amino]-2-chloro-benzoyl}-10,11-dihydro-5H-pyrrolo[2,1-c][1,4]benzodiazepine-3-carboxylic acid (2-dimethylamino-ethyl) -amide] | 11.3 | – |
| – | O=C(Nc1ccc(C(=O)N2Cc3ccc(C(=O)N4CCC(N5CCOCC5)CC4)n3Cc3ccccc32)c(Cl)c1)c1ccccc1-c1ccccc1 [Example 15, Biphenyl-2-carboxylic acid{3-chloro-4-[3-(4-morpholino-piperidine-1-carbonyl)-5H,11H-pyrrolo[2,1-c][1,4]benzodiazepine-10-carbonyl]-phenyl}-amide.] | – | 10.7 |
| – | COc1cc(NC(=O)c2ccccc2-c2ccccc2)ccc1C(=O)N1Cc2ccc(C(=O)N3CCN(C)CC3)n2Cc2ccccc21 [Example 16] | 24.3 | – |
| – | COc1cc(NC(=O)c2ccccc2-c2ccccc2)ccc1C(=O)N1Cc2ccc(C(=O)NN(C)C)n2Cc2ccccc21 [Example 17] | 9.4 | – |
| – | O=C(O)CNC(=O)c1ccc2n1Cc1ccccc1N(C(=O)c1ccc(NC(=O)c3ccccc3-c3ccccc3)cc1Cl)C2 [Example 18, 10-{4-[(Biphenyl-2-carbonyl)-amino]-2-chloro-benzoyl}-10,11-dihydro-5H-pyrrolo[2,1-c][1,4]benzodiazepine-3-carboxylic acid (glycyl)-amide] | 7.8 | 7.6 |

| SMILES | IC50 [2, 3] [nM] | Urine Volume (ml/4 hrs) [1] [ml/4 hrs] | IC50 [2] [nM] |
| --- | --- | --- | --- |
| Cc1ccc(F)cc1C(=O)Nc1ccc(C(=O)N2Cc3ccc(C(=O)O)n3Cc3ccccc32)c(Cl)c1 [Example 1, 10-[2-Chloro-4-(5-fluoro-2-methyl-benzoylamino)-benzoyl]-10,11-dihydro-5H-pyrrolo[2,1-c][1,4]benzodiazepine-3-carboxylic acid] | 14 | 13.2 | – |
